From patent US11167039B2, “MET antibody drug conjugates” (priority 2016, dated 2021)
“Also recorded” adds a separate entry of the source.

Experiments:
GEO = assay: Cell killing, GEO; assay type: cell-based, human; design: key: Sensitive; Resistant; conditions: Colorectal Ca
Description: (§1) Briefly described, 2-3×10^3 cells/well in 100 μL of culture medium may be plated in 96 well plates and incubated overnight at 37° C., 5% CO2. The MET-ADCs, MET antibody(ies), control MMAE or control hIgG4 conjugated to MMAE with cysteine conjugation antibody(ies) may be diluted 1:3 in serum-free culture medium starting from 100 nM (final) in 50 μL as 3× concentrations to the HT-29 cells. At the end of an additional 5-6 days of cell growth at 37° C. in a humidified incubator with 5% CO2, the plates may be equilibrated to room temperature for 30 minutes and 100 μL/well of CellTiter-Glo® reagent (Promega Corp., Fitchburg, Wis.) may then be added to assess cell viability. Cell viability may be determined by measuring luminescence.
(§2) Various tumor cell lines and normal human cells may be tested for MET-ADC induced cell killing activity essentially as described above in Example 10 as assessed for MET receptor density. MET cell surface density was determined by indirect immunofluorescence staining of cell surface antigens on cultured cells using QIFIKIT (Dako). […] Following a forty-five minute incubation, cells may be incubated for 1 hour on ice with FITC conjugated antibody diluted 1:50 in FACS buffer. Then cells may be washed and receptor numbers may be determined by indirect immunofluorescence staining of the QIFIKIT beads using a Becton Dickinson LSRII flow cytometer.

humen fresh hepatocyte = assay: Cell killing, fresh hepatocyte; assay type: cell-based, human; design: key: Sensitive; Resistant
Description: as §1, §2

PC3 = assay: Cell killing, PC3; assay type: cell-based, human; design: key: Sensitive; Resistant; conditions: PC3, Prostatic Ca
Description: as §1, §2

KP-4 xenograft = assay: KP-4 pancreatic cancer xenograft model; assay type: in vivo, mouse; conditions: vs control hIgG4-Lys-ADC
Description: Female athymic nude mice age 6- to 7-weeks old are available commercially, including from Harlan Laboratories (Indianapolis, Ind.). The mice are allowed to acclimate for one week and fed ad libitum on a normal low fat (4.5%) diet, which may be continued for the duration of the study. Tumor cells may be purchased from ATCC and may be cultured in cell culture media such as RPMI 1640 (Life Technologies) with L-glutamine, 25 mM HEPES supplemented with 10% FBS and 1 mM Na Pyruvate. Cells may be detached, washed with serum free medium and then resuspended at a final concentration of 50×10^6 cells/mL in serum free RPMI 1640. Tumor cells, approximately 5×10^6, may be injected subcutaneously in the rear flank of subject mice in a 1:1 mixture of serum free growth medium and Matrigel (Becton Dickinson, Bedford, Mass.). Tumor and body weight measurements may be performed twice weekly. Prior to treatment, mice can be randomized based on tumor size using a randomization algorithm. Treatments may be started when the average tumor volume reaches 100 mm^3. […]
MET-ADCs and control hIgG4-MMAE may be prepared in Phosphate Buffered Saline (PBS) prior to dose. Tumor size may be determined by caliper measurements. […] Log volume data can be analyzed with two-way repeated measures ANOVA by time and treatment using SAS PROC MIXED software (SAS Institutes Inc, Cary, N.C.). […]

Cal27 = assay: Cell killing, Cal27; assay type: cell-based, human; design: key: Sensitive; Resistant; conditions: Cal27, head and neck cancer
Description: as §1, §2

HT-29 cells = assay: HT-29 cell-killing assay; assay type: cell-based, human; design: key to Sensitive/ Resistant: Sensitive; Resistant
Description: Therefore, the HT-29 cell line may be used to determine if test MET-ADCs can kill MET overexpressing tumor cells in vitro.
as §1, §2

L55 = assay: Cell killing, L55; assay type: cell-based, human; design: key: Sensitive; Resistant; conditions: L55, NSCLC
Description: as §1, §2

SNU-5 = assay: Cell killing, SNU-5; assay type: cell-based, human; design: key: Sensitive; Resistant; conditions: SNU-5, Gastric Ca
Description: as §1, §2

CXF-269L = assay: Cell killing, CXF-269L; assay type: cell-based, human; design: key to Sensitive/ Resistant: Sensitive; Resistant
Description: as §1, §2

A204 = assay: Cell killing, A204; assay type: cell-based, human; design: key: Sensitive; Resistant; conditions: A204, Rhabdomyosarcoma
Description: as §1, §2

OV79 = assay: Cell killing, OV79; assay type: cell-based, human; design: key: Sensitive; Resistant; conditions: OV79, Ovarian Ca
Description: as §1, §2

[1] = tested on: pan-AKT phosphorylation (pAKT) in Caki-1 cells; assay: Phosphor-AKT bioassay for MET agonist activity in Caki-1 cells; assay type: cell-based; conditions: 5 μg/mL
Description: Because it has been reported that MET agonistic antibodies increased hepatocyte proliferation and toxicity, a phosphor-AKT assay may be used to test MET-ADCs for MET agonist activity. Briefly stated, Caki-1 cells may be starved overnight in serum-free medium with 0.1% BSA and then treated with ADCs or naked MET antibodies at 5 μg/mL for the desired durations. Cell lysates may be analyzed for phosphorylation of pan-AKT by MSD ELISA, for example.

CFPAC-1 = assay: Cell killing, CFPAC-1; assay type: cell-based, human; design: key: Sensitive; Resistant; conditions: CFPAC-1, PANC Ca
Description: as §1, §2

HuAEC = assay: Cell killing, non-tumor HuAEC; assay type: cell-based, human; design: key: Sensitive; Resistant; conditions: aortic endothelia cell
Description: as §1, §2

EBC-1 = assay: Cell killing, EBC-1; assay type: cell-based, human; design: key: Sensitive; Resistant; conditions: EBC-1, NSCLC
Description: as §1, §2

[2] = tested on: cholangiocarcinoma PDX tumors; assay: Cholangiocarcinoma PDX model; assay type: in vivo, mouse; conditions: 5 mg/kg weekly, four doses; 4 cholangiocarcinoma PDX
Text: Body weight can also be assessed regularly.
Tumor samples from 4 human cholangiocarcinoma patients were individually implanted into different immunocompromised mice (i.e., each mouse carried one tumor derived from a patient's cholangiocarcinoma tumor) essentially as described above in this Example 13.

Substance: MET-ADC#1: emibetuzumab lysine-conjugated via (2,5-dioxopyrrolidin-1-yl) 2-azidoacetate and Octyne-β-Glucn-MMAE
- Sensitive/ Resistant (GEO): R
- Sensitive/ Resistant (humen fresh hepatocyte): R
- Sensitive/ Resistant (PC3): S
- anti-tumor activity (KP-4 xenograft): dramatic anti-tumor activity
- Sensitive/ Resistant (Cal27): S
- Sensitive/ Resistant (HT-29 cells; HT29, Colorectal Ca): S
- cell killing activity in HT-29 cells (HT-29 cells; HT-29 cells): kills MET expressing HT-29 tumor cells better than the parental anti-MET antibody, emibetuzumab, free MMAE, or a combination of emibetuzumab and free MMAE; also recorded: highly potent in killing HT-29 cells
- greater potency in killing HT-29 tumors cells as compared to ABBV-399 (HT-29 cells; HT-29 cells): 200 fold
- Sensitive/ Resistant (L55): R
- Sensitive/ Resistant (SNU-5): S
- cell killing activity in CXF-269L cells (CXF-269L; CXF-269L (TP53) colon cancer cells): killed
- Sensitive/ Resistant (CXF-269L; CXF-269L, Colorectal Ca): S
- Sensitive/ Resistant (A204): R
- Sensitive/ Resistant (OV79): S
- MET agonist activity (induction of pan-AKT phosphorylation) [1]: same low to no agonist activity as its unconjugated parental antibody, emibetuzumab; also recorded: does not have increased agonist activity as compared with emibetuzumab
- Sensitive/ Resistant (CFPAC-1): R
- Sensitive/ Resistant (HuAEC): R
- Sensitive/ Resistant (EBC-1): S
- inhibition of tumor growth [2]: dramatically inhibited tumor growth
